{
  "source": "patent US20040022827A1",
  "about": "“Remedy for hepatopathy” (CHUGAI SEIYAKU KABUSIKI KAISHA, priority 1997, published 2004)",
  "key": {"[1]": {"system": "Patient with chronic hepatitis C", "assay": "Peroral L-valine in patient with chronic hepatitis C", "type": "in vivo, human", "settings": "4-month period after start of oral L-valine 1 g three times a day; mean±SD of four monthly tests", "source_text": "Patient ([…]) with chronic hepatitis C was given oral administration of L-valine on a three-times-a-day basis, with one gram at each time. The average GOT and GPT levels of the patient for a 4-month period before the administration of L-valine were 89.0±21.9 IU/L and 91.5±23.1 IU/L, respectively, in terms of mean±SD obtained by four tests on a monthly basis. The average GOT and GPT levels for a 4-month-period after the start of valine administration were 68.3±20.4 IU/L and 73.0±24.3 IU/L, respectively, in terms of mean±SD obtained by four tests on a monthly basis; thus, significant (p<0.05 in t-test) decreases were observed. An ameliorating effect was also observed in platelet counts; the average platelet count for a 6-month period before the administration of L-valine was 15.7±1.7 (×10^4) in terms of mean±SD obtained by four tests on a monthly or bimonthly basis, whereas the average platelet count for a 4-month period after the start of valine administration was 20.4±0.9 (×104) in terms of mean±SD obtained by four tests on a monthly basis; thus, a significant (p<0.01 in t-test) increase was observed. It was therefore clear that L-valine is also effective in patients with chronic hepatitis."}, "[2]": {"system": "Rat Model of Glactosamine-Induced Acute Hepatopathy", "assay": "Rat model of galactosamine-induced acute hepatopathy", "type": "in vivo", "settings": "experimental fluids administered for one day; L-valine 16.88 g/L in lactated Ringer's, 100 mL/kg/day iv; mean ± SD", "procedure": "(§1) Crj: Donryu male rats aged 8-9 weeks and weighing 250 g or so were used. During the experiment, the rats were given a dedicated feed MF (product of Oriental Yeast) and water ad libitum. D-Galactosamine HCl (product of Sigma) was dissolved in physiological saline, adjusted to pH 7.0 with 1 N NaOH and used as a solution containing 100 mg of D-galactosamine (hereinafter referred to simply as “galactosamine”) per milliliter. Carbon tetrachloride (product of Wako Pure Chemical Industries) was used as a 50% (v/v) solution in olive oil (product of Wako Pure Chemical Industries). After 12-h fasting, the rats were administered intraperitoneally with galactosamine in a volume of 10 mL/kg or subcutaneously with the carbon tetrachloride solution at a volume of 4 mL/kg to induce hepatopathy. Immediately after the administration, the rats were anesthetized with ether and a catheter was inserted into the right cervical vein of each animal and retained in the central vein. The catheter in the central vein was passed under the skin to connect the blade bones, fitted with a harness, passed through a protective coil and connected to a swivel (Bio-Cannula of Biomedica). The rats were transferred into a metabolic cage and subjected to the experiment under a non-anesthetized and unconstrained condition. The experimental fluids were administered constantly with the pumping speed set at 100 mL/kg/day. The experimental fluids were administered for 1-4 days. The treated groups were two, one being a control group administered with a lactated Ringer's injection [[…] (registered trademark) of Otuka Seiyaku] and the other being an L-Val group administered with valine (L-valine added to lactated Ringer's injection to a concentration of 16.88 g/L). A non-treated (NT) group was also set. After the end of administration of the experimental fluids, the rats were anesthetized with ether and blood was taken from the abdominal aorta; thereafter, autopsy was done to collect liver samples."}, "[3]": {"system": "Rat Model of CC14-Induced Acute Hepatopathy", "assay": "Rat model of carbon tetrachloride-induced acute hepatopathy", "type": "in vivo", "settings": "experimental fluids administered for two days; L-valine 16.88 g/L in lactated Ringer's, 100 mL/kg/day iv; mean ± SD", "procedure": "as §1"}, "[4]": {"system": "Rat Model of CCl4-Induced Chronic Hepatopathy", "assay": "Rat model of CCl4-induced chronic hepatopathy", "type": "in vivo", "settings": "feed with 3 wt % L-valine for 14 weeks", "procedure": "Crj: Donryu male rats aged 8-9 weeks were used. During the experiment, the rats were given a dedicated feed MF (product of Oriental Yeast) and water ad libitum. Carbon tetrachloride (product of Wako Pure Chemical Industries) was dissolved in olive oil (product of Wako Pure Chemical Industries) to prepare a 50% (v/v) solution, which was administered subcutaneously to the rats for 14 weeks on a twice-a-week basis (to give 28 shots), each time at a dose of 2 mL/kg, thereby preparing models of chronic hepatopathy. During the 14-week experiment, the rats were given an experimental feed which was a dedicated feed MF; this was given as such to the control group and as a mixture with 3 wt % L-valine to the L-val group. A non-treated (NT) group was also set. After the end of the 14-week experiment, the rats were anesthetized with ether and blood was taken from the abdominal aorta; thereafter, autopsy was done to collect liver samples."}, "[5]": {"system": "Rat Model of Hepatic Insufficiency due to 90% Hepatectomy", "assay": "Rat model of hepatic insufficiency due to 90% hepatectomy", "type": "in vivo", "source_text": "Crj: Donryu male rats aged 8-9 weeks and weighing 250 g or so were used. During the experiment, the rats were given a dedicated feed MF (product of Oriental Yeast) and water ad libitum. After 12-h fasting, the rats were anesthetized with ether and a catheter was inserted into the right cervical vein of each animal and retained in the central vein. Subsequently, the rats were underwent 90% hepatectomy according to the method of Gaub et al. (J. Gaub et al., Hepatology, 4, 902-904, 1984). The catheter in the central vein was passed under the skin to connect the blade bones, fitted with a harness, passed through a protective coil and connected to a swivel (Bio-Cannula of Biomedica). The rats were transferred into a metabolic cage and subjected to the experiment under a non-anesthetized and unconstrained condition. The experimental fluids were administered constantly with the pumping speed set at 100 mL/kg/day. Immediately after the hepatectomy, 3 mL of a 20% glucose solution was administered to the rats subcutaneously; for 3 days after the hepatectomy, the rats were allowed to drink a 10% glucose solution and thereafter tap water. The experimental fluids were administered for 4 or 6 days. The treated groups were two, on being a control group administered with a lactated Ringer's injection [Lactec (registered trademark) of Otuka Seiyaku] and the other being an L-val group administered with valine (L-valine added to lactated Ringer's injection to a concentration of 16.88 g/L). A non-treated (NT) group was also set. After the end of the administration of the experimental fluids, the rats were anesthetized with ether and blood was taken from the abdominal aorta; thereafter, autopsy was done to collect liver samples."}, "[6]": {"settings": "experimental fluids administered for four days, mean ± SD"}, "[7]": {"settings": "experimental fluids administered for six days, 20 animals"}},
  "data": [
    {"smiles": "CC(C)[C@H](N)C(=O)O", "note": "[L-Val, L-valine]", "values": [
      {"measurement": "average GOT level", "setting": "[1]", "result": "68.3±20.4", "unit": "IU/L"},
      {"measurement": "average GPT level", "setting": "[1]", "result": "73.0±24.3", "unit": "IU/L"},
      {"measurement": "average platelet count", "setting": "[1]", "result": "20.4±0.9 ×104"},
      {"measurement": "Alb", "setting": "[2]", "result": "2.5 ± 0.1", "unit": "g/dL"},
      {"measurement": "Fischer ratio BCAA/AAA", "setting": "[2]", "result": "6.42 ± 0.40"},
      {"measurement": "GOT", "setting": "[2]", "result": "760.2 ± 215.4", "unit": "IU/1"},
      {"measurement": "GPT", "setting": "[2]", "result": "415.7 ± 180.8", "unit": "IU/1"},
      {"measurement": "LDH", "setting": "[2]", "result": "973.7 ± 362.0", "unit": "IU/1"},
      {"measurement": "TP", "setting": "[2]", "result": "4.9 ± 0.3", "unit": "g/dL"},
      {"measurement": "Fischer ratio BCAA/AAA", "setting": "[3]", "result": "4.32 ± 1.74"},
      {"measurement": "GOT", "setting": "[3]", "result": "3241.9 ± 2567.2", "unit": "IU/1"},
      {"measurement": "GPT", "setting": "[3]", "result": "1951.2 ± 1730.9", "unit": "IU/l"},
      {"measurement": "LDH", "setting": "[3]", "result": "3040.1 ± 4163.3", "unit": "IU/l"},
      {"measurement": "TP", "setting": "[3]", "result": "5.1 ± 0.4", "unit": "g/dL"},
      {"measurement": "No. of deaths", "setting": "[4]; 10 animals", "result": 0},
      {"measurement": "No. of viable cases", "setting": "[4]; 10 animals", "result": 10},
      {"measurement": "Retention of ascites (No. of cases)", "setting": "[4]; 10 animals", "result": 1},
      {"measurement": "Retention of pleural effusion (No. of cases)", "setting": "[4]; 10 animals", "result": 0},
      {"measurement": "Fischer ratio BCAA/AAA", "setting": "[4]; mean ± SD", "result": "3.17 ± 0.96"},
      {"measurement": "Alb", "setting": "[5]; [6]", "result": "1.8 ± 0.2", "unit": "g/dL"},
      {"measurement": "Fischer ratio BCAA/AAA", "setting": "[5]; [6]", "result": "3.33 ± 1.11"},
      {"measurement": "GOT", "setting": "[5]; [6]", "result": "402.3 ± 302.4", "unit": "IU/l"},
      {"measurement": "GPT", "setting": "[5]; [6]", "result": "134.9 ± 76.3", "unit": "IU/l"},
      {"measurement": "TP", "setting": "[5]; [6]", "result": "3.6 ± 0.5", "unit": "g/dL"},
      {"measurement": "No. of deaths", "setting": "[5]; [7]", "result": 1},
      {"measurement": "No. of viable cases", "setting": "[5]; [7]", "result": 19},
      {"measurement": "Viability", "setting": "[5]; experimental fluids administered for six days, 20 animals, P < 0.01 vs control", "result": 95, "unit": "%"}
    ]}
  ]
}
